Source: patent US11925690B2, “Bifunctional molecules for targeting Rpn11” (AMPHISTA THERAPEUTICS LTD, priority 2018, dated 2024)

Assays:
Type in all cases: cell-based
[1] = target: T1, Brd2 (Homo sapiens, UniProt P25440); assay: Time-dependent BET degradation, immunoblot; design: endogenous in cells; host or cells: HEK293 (CRL-1573), HeLa (CCL-2); settings: HeLa, Brd2, 1 μM
Experimental: (§1) Immunoblotting. Proteins were separated by SDS-PAGE on NuPage 4-12% Bis-Tris gels, followed by transfer to Amersham Protran 0.45 NC nitrocellulose membrane (GE Healthcare) using wet transfer. Membranes were blocked using 5% w/v milk in Tris-buffered saline (TBS) with 0.1% Tween-20. Blots were probed (overnight at 4 °C) using anti-Brd2 (Abcam ab139690, 1:2,000 dilution), anti-Brd3 (Abcam ab50818, 1:500 dilution), and anti-Brd4 (Abcam ab128874, 1:1,000 dilution) primary antibodies, as appropriate. The next day, blots were washed with TBST and incubated (1 h at Room temperature) with anti-Tubulin hFAB-rhodamine (BioRad, 12004166) primary antibody, and either anti-rabbit IRDye 800CW (Licor 1:1,000 dilution) or anti-mouse IRDye 800CW (Licor 1:1,000 dilution) secondary antibody. Blots were developed using a Bio-Rad ChemiDoc MP Imaging System, and band quantification was performed using Image Studio software (LiCor). Band intensities were normalized to the tubulin loading control and reported as % of the average 0.1% DMSO vehicle intensity. Degradation data was plotted and analysed using Prism (Graphpad, version 8).
(§2) HEK293 (0.5×10^6) cells were seeded in standard 6-well plates (2 mL medium) overnight before treatment with compounds at 1 μM concentration, with a final DMSO concentration of 0.1% v/v. After incubation for the desired time (0-24 hrs), cells were washed with DPBS (Gibco) and lysed using 85 μL RIPA buffer (Sigma-Aldrich) supplemented with complete Mini EDTA-free protease inhibitor cocktail (Roche) and benzonase. Lysates were clarified by centrifugation (20000 g, 10 min, 4° C.) and the total protein content of the supernatant was quantified using a Bradford colorimetric assay. Samples were prepared using equal amounts of total protein and LDS sample buffer (Invitrogen). Band intensities were normalized to the tubulin loading control and reported as % of the average 0.1% DMSO vehicle intensity. Degradation data was plotted and analysed using Prism (Graphpad, version 8).
(§3) MZ1 and 11JQ17 were used at 1 μM (4 h) for positive and negative controls, respectively. […]

[2] = target: T1, Brd2; assay: Time-dependent BET degradation, immunoblot; settings: HEK293, Brd2, 1 μM; for Dmax at 1 µM: 0-24 hrs; for Abs. T1/2: time to deplete 50% of the protein relative to DMSO; for T1/2: time to reach 50% of the Dmax
Experimental: as §1, §2, §3

[3] = system: MV4-11 cells; assay: CellTiter-Glo anti-proliferative assay; settings: MV4-11, 72 h, 5 μM and below compound
Experimental: The anti-proliferative effects of representative compounds and other compounds was measured using the CellTiter-Glo assay (Promega). MV4-11 cells were incubated in a sterile, white, clear-bottomed 384-well cell-culture microplate (Greiner Bio-one), at 2× concentration in RPMI media and a volume of 25 μl. The next day, test compounds were serially diluted in RPMI media to 2× concentration, then added to cells to make a final volume of 50 μl. After a 72 h incubation 25 μl of CellTiter-Glo reagent was added to each well. Following 15 minute incubation the luminescence signal was read on a Pherastar FS. The final concentration of assay components are as follows: 3×10^5 cells/ml, 0.05% DMSO, 5 μM and below compound. Data (FIG. 8) was processed and dose-response curves generated using Prism 8 (Graphpad).

[4] = target: T2, Brd4 (S) (Homo sapiens, UniProt O60885); assay: Time-dependent BET degradation, immunoblot; design: Dmax: dose or concentration left out as unconfirmed; settings: HeLa; for Abs. T1/2 / T1/2: 1 μM; for Abs. T1/2: time to deplete 50% of the protein relative to DMSO; for T1/2: time to reach 50% of the Dmax
T2 construct: endogenous in cells; host or cells: HEK293 (CRL-1573), HeLa (CCL-2)
Experimental: as §1, §2
(§4) MZ1 and 11JQ17 were used at 1 μM (4 h) for positive and negative controls, respectively. […] T1/2 (h) is the time required to deplete 50% of the protein relative to DMSO.

[5] = target: T3, Brd4 (L) (Homo sapiens, UniProt O60885); assay: Time-dependent BET degradation, immunoblot; design: Dmax: dose or concentration left out as unconfirmed; settings: HeLa; for Abs. T1/2 / T1/2: 1 μM; for Abs. T1/2: time to deplete 50% of the protein relative to DMSO; for T1/2: time to reach 50% of the Dmax
T3 construct: endogenous in cells; host or cells: HEK293 (CRL-1573), HeLa (CCL-2)
Experimental: as §1, §2, §4

[6] = target: T4, Brd4 (Homo sapiens, UniProt O60885); assay: Mechanistic evaluation: Brd4 degradation after inhibitor pre-treatment; settings: HEK293, 1 μM degrader 4 h
T4 construct: immunoblot analysis of Brd4 following 4 h treatment of HEK293 cells; endogenous in cells; host or cells: HEK293 (CRL-1573)
Experimental: HeLa (5×10^5) and HEK293 (1×10^6) cells were seeded in standard 6-well plates (2 mL medium) overnight before pre-treatment with inhibitors (10 μM bortezomib, 10 μM capzimin, 10 μM JQ1). After a 0.5 h pre-incubation time, cells were subsequently treated with vehicle, 1 μM MZ1 or 1 μM 11JQ15, yielding a final overall DMSO concentration of 0.2% v/v. After 4 h incubation, cells were washed with DPBS (Gibco) and lysed using 85 μL RIPA buffer (Sigma-Aldrich) supplemented with cOmplete Mini EDTA-free protease inhibitor cocktail (Roche) and benzonase. Lysates were clarified by centrifugation (20000 g, 10 min, 4° C.) and the total protein content of the supernatant was quantified using a Bradford colorimetric assay. Samples were prepared using equal amounts of total protein and LDS sample buffer (Invitrogen).
Brd4 band intensities were normalized to tubulin loading control and reported in FIG. 6B as % of the average 0.1% DMSO vehicle intensity. Each bar is mean±SEM of three independent experiments performed in duplicate (n=3).

[7] = target: T4, Brd4; assay: Immunoblot analysis of Brd4 in HEK293 cells (prodrug activity, negative SAR); settings: HEK293, 1 μM, 4 h, n=3
Experimental: as §1, with “8). […]” for “8).”
HEK293 (1×10^6) cells incubated with DMSO, 1 μM 11JQ15 or 1 μM 11JQ17 for 4 h with a final DMSO concentration of 0.1% v/v. […] Degradation data was plotted and analysed using Prism (Graphpad, version 8), where bars are mean±SEM of three independent experiments.

T1 sequence (P25440 whole entry): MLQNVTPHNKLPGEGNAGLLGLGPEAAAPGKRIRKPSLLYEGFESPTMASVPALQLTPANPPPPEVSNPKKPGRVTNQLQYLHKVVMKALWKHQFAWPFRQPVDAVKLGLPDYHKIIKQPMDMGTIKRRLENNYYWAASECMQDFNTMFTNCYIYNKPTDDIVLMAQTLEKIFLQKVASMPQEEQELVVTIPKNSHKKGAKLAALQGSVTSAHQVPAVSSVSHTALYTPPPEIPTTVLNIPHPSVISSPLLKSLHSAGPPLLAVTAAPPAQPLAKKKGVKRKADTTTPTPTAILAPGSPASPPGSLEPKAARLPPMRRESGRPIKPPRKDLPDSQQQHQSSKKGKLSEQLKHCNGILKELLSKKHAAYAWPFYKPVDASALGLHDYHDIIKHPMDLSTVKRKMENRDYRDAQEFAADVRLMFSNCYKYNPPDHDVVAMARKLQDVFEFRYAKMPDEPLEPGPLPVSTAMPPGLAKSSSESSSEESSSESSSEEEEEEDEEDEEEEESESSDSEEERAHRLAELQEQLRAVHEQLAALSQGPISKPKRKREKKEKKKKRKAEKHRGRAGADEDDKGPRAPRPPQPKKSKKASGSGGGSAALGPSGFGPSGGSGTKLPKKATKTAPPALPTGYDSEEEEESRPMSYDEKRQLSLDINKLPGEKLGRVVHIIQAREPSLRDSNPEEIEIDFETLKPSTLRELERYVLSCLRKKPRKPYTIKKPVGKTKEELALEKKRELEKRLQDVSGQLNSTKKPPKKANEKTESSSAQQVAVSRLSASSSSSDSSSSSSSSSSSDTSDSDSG

Dmax at 1 µM [1]	Abs. T1/2 ([1]; time to deplete 50% of the protein relative to DMSO)	T1/2 ([1]; time to reach 50% of the Dmax)	Dmax at 1 µM [2]	Abs. T1/2 [2]	T1/2 [2]	Dmax [4]	Abs. T1/2 [4]	T1/2 [4]	Dmax [5]	Abs. T1/2 [5]	T1/2 [5]	Brd4 degradation in the presence of JQ1 ([6]; 10 μM JQ1 pre-treatment 0.5 h)	Brd4 degradation in the presence of bortezomib ([6]; 10 μM bortezomib pre-treatment 0.5 h)	Brd4 degradation in the presence of capzimin ([6]; 10 μM capzimin pre-treatment 0.5 h)	Brd4 levels (FIG. 3) [7]	SMILES	cytotoxicity profile / anti-proliferative effect (FIG. 8) [3]
50%	4 h	4 h	80%	3.2 h	1.8 h	100%	3.1 h	3 h	100%	2.4 h	2.3 h					Cc1sc2c(c1C)C(c1ccc(Cl)cc1)=N[C@@H](CC(=O)NCCCCNC(=O)c1cc(S)c3ncc(C(=O)NCCc4nccs4)cc3c1)c1nnc(C)n1-2 [Example 11JQ7]	distinct from JQ1 and inactive 11JQ18
			50%	5.7 h	1.1 h	90%	3.3 h	2.8 h	90%	4.3 h	3.5 h	completely blocked	completely blocked	significantly blocked	significant depletion of Brd4 levels	Cc1sc2c(c1C)C(c1ccc(Cl)cc1)=N[C@@H](CC(=O)NCCOCCNC(=O)c1cc(SC(=O)c3ccccc3)c3ncc(C(=O)NCCc4nccs4)cc3c1)c1nnc(C)n1-2 [Example 11JQ15]	
			75%	2.7 h	1.7 h											Cc1sc2c(c1C)C(c1ccc(Cl)cc1)=N[C@@H](CC(=O)NCCCCNC(=O)c1cc(SC(=O)c3ccccc3)c3ncc(C(=O)NCCc4nccs4)cc3c1)c1nnc(C)n1-2 [Example 11JQ16]	distinct from JQ1 and inactive 11JQ18
